Source: US20220339143A1, “TAK-925 FOR USE IN TREATING NARCOLEPSY” (Takeda Pharmaceutical Company Limited, priority 2019, published 2022)
Where two headings read alike, the source gives them in different places.

Assay: Single dose PK in healthy subjects (Cohorts 1, 2, S1 and S2), plasma
Format: in vivo, human
Conditions: human, plasma, iv; for concentration at 3 h after end of infusion: 3 hr After End of Infusions; for concentration at 4 h after end of infusion: 4 hr After End of Infusions; for concentration at 6 h after end of infusion: 6 hr After End of Infusions; for concentration at 10 h after end of infusion: 10 hr After End of Infusions; for concentration at 15 h after end of infusion: 15 hr After End of Infusions
Procedure: This study investigates (i) the safety and tolerability of Compound A (methyl (2R,3S)-3-((methylsulfonyl)amino)-2-(((cis-4-phenylcyclohexyl)oxy)methyl)piperidine-1-carboxylate) when a single dose given as a 9 hour continuous IV infusion is administered to healthy adults, healthy elderly subjects and patients with narcolepsy type 1 (NT1); (ii) the pharmacokinetics of Compound A when a single dose given as a 9 hour continuous IV infusion is administered to healthy adults, healthy elderly subjects and patients with narcolepsy type 1; and (iii) the pharmacodynamics (PD) effects of Compound A, primarily by evaluation of the sleep latency on MWT when a single dose given as a 9 hour continuous IV infusion is administered to patients with narcolepsy type 1.
Pharmacokinetics: Concentrations of Compound A in plasma, and CSF, and pharmacokinetics parameters.
On average, the time to reach the plateau appeared to be approximately 3 to 4 hours after the start of infusion. […] After switching off the IV infusion, Compound A plasma concentrations declined rapidly and in a biphasic manner with a mean terminal disposition phase t1/2z ranging approximately from 3.4 to 5.1 hours across all doses. […] Table 5 provides a summary of plasma concentrations of Compound A after a single IV infusion in healthy subjects. Table 6 provides a summary of pharmacokinetic parameters of Compound A after a single IV infusion in healthy subjects.

[1] = 240 mg, 240 mg single IV infusion, read-out: Plasma Concentration of Cmpd A, Maximum
[2] = 240 mg, 240 mg single IV infusion, read-out: Plasma Concentration of Cmpd A, Median
[3] = 240 mg, 240 mg single IV infusion, read-out: Plasma Concentration of Cmpd A, Q3
[4] = 240 mg, 240 mg single IV infusion, read-out: Plasma Concentration of Cmpd A, Q1

COC(=O)N1CCC[C@H](NS(C)(=O)=O)[C@@H]1CO[C@H]1CC[C@@H](c2ccccc2)CC1 [Compound A, methyl (2R,3S)-3-((methylsulfonyl)amino)-2-(((cis-4-phenylcyclohexyl)oxy)methyl)piperidine-1-carboxylate]
Cmax (134.4 mg, 134.4 mg single IV infusion, healthy subjects, read-out: Cmax Geo Mean): 305 ng/mL | Cmax (134.4 mg, 134.4 mg single IV infusion, healthy subjects, read-out: Cmax Mean): 308 ng/mL | Cmax (134.4 mg, 134.4 mg single IV infusion, healthy subjects, read-out: Cmax Median): 314 ng/mL | Vd (134.4 mg, 134.4 mg single IV infusion, healthy subjects, read-out: Vss Mean): 88.5 L | Vd (134.4 mg, 134.4 mg single IV infusion, healthy subjects, read-out: Vss Median): 87 L | Vd (134.4 mg, 134.4 mg single IV infusion, healthy subjects, read-out: Vz Mean): 285 L | Vd (134.4 mg, 134.4 mg single IV infusion, healthy subjects, read-out: Vz Median): 276 L | Tmax (134.4 mg, 134.4 mg single IV infusion, healthy subjects, read-out: tmax Mean): 6.33 h | Tmax (134.4 mg, 134.4 mg single IV infusion, healthy subjects, read-out: tmax Median): 6.5 h | AUC (180 mg, 180 mg single IV infusion, healthy subjects, read-out: AUC24 Geo Mean): 2990 ng·h/mL | AUC (180 mg, 180 mg single IV infusion, healthy subjects, read-out: AUC24 Mean): 3000 ng·h/mL | AUC (180 mg, 180 mg single IV infusion, healthy subjects, read-out: AUC24 Median): 3040 ng·h/mL | AUC(0-inf) (180 mg, 180 mg single IV infusion, healthy subjects, read-out: AUCinf Geo Mean): 3010 ng·h/mL | AUC(0-inf) (180 mg, 180 mg single IV infusion, healthy subjects, read-out: AUCinf Mean): 3020 ng·h/mL | AUC(0-inf) (180 mg, 180 mg single IV infusion, healthy subjects, read-out: AUCinf Median): 3050 ng·h/mL | AUC(0-t) (180 mg, 180 mg single IV infusion, healthy subjects, read-out: AUClast Geo Mean): 2990 ng·h/mL | AUC(0-t) (180 mg, 180 mg single IV infusion, healthy subjects, read-out: AUClast Mean): 3000 ng·h/mL | AUC(0-t) (180 mg, 180 mg single IV infusion, healthy subjects, read-out: AUClast Median): 3040 ng·h/mL | clearance (180 mg, 180 mg single IV infusion, healthy subjects, read-out: CL Mean (converted)): 997 mL/min | clearance (180 mg, 180 mg single IV infusion, healthy subjects, read-out: CL Median (converted)): 985 mL/min | concentration at 9 h (180 mg, 180 mg single IV infusion, healthy subjects, read-out: Ceoi Geo Mean): 324 ng/mL | concentration at 9 h (180 mg, 180 mg single IV infusion, healthy subjects, read-out: Ceoi Mean): 325 ng/mL | concentration at 9 h (180 mg, 180 mg single IV infusion, healthy subjects, read-out: Ceoi Median): 316 ng/mL | Cmax (180 mg, 180 mg single IV infusion, healthy subjects, read-out: Cmax Geo Mean): 344 ng/mL | Cmax (180 mg, 180 mg single IV infusion, healthy subjects, read-out: Cmax Mean): 345 ng/mL | Cmax (180 mg, 180 mg single IV infusion, healthy subjects, read-out: Cmax Median): 358 ng/mL | Vd (180 mg, 180 mg single IV infusion, healthy subjects, read-out: Vss Mean): 90.8 L | Vd (180 mg, 180 mg single IV infusion, healthy subjects, read-out: Vss Median): 81.5 L | Vd (180 mg, 180 mg single IV infusion, healthy subjects, read-out: Vz Mean): 291 L | Vd (180 mg, 180 mg single IV infusion, healthy subjects, read-out: Vz Median): 268 L | Tmax (180 mg, 180 mg single IV infusion, healthy subjects, read-out: tmax Mean): 6.33 h | Tmax (180 mg, 180 mg single IV infusion, healthy subjects, read-out: tmax Median): 6.5 h | AUC (240 mg, 240 mg single IV infusion, healthy subjects, read-out: AUC24 Geo Mean): 4540 ng·h/mL | AUC (240 mg, 240 mg single IV infusion, healthy subjects, read-out: AUC24 Mean): 4580 ng·h/mL | AUC (240 mg, 240 mg single IV infusion, healthy subjects, read-out: AUC24 Median): 4400 ng·h/mL | AUC(0-inf) (240 mg, 240 mg single IV infusion, healthy subjects, read-out: AUCinf Geo Mean): 4580 ng·h/mL | AUC(0-inf) (240 mg, 240 mg single IV infusion, healthy subjects, read-out: AUCinf Mean): 4630 ng·h/mL | AUC(0-inf) (240 mg, 240 mg single IV infusion, healthy subjects, read-out: AUCinf Median): 4430 ng·h/mL | AUC(0-t) (240 mg, 240 mg single IV infusion, healthy subjects, read-out: AUClast Geo Mean): 4540 ng·h/mL | AUC(0-t) (240 mg, 240 mg single IV infusion, healthy subjects, read-out: AUClast Mean): 4580 ng·h/mL | AUC(0-t) (240 mg, 240 mg single IV infusion, healthy subjects, read-out: AUClast Median): 4400 ng·h/mL | clearance (240 mg, 240 mg single IV infusion, healthy subjects, read-out: CL Mean (converted)): 880 mL/min | clearance (240 mg, 240 mg single IV infusion, healthy subjects, read-out: CL Median (converted)): 906 mL/min | concentration at 9 h (240 mg, 240 mg single IV infusion, healthy subjects, read-out: Ceoi Geo Mean): 493 ng/mL | concentration at 9 h (240 mg, 240 mg single IV infusion, healthy subjects, read-out: Ceoi Mean): 497 ng/mL | concentration at 9 h (240 mg, 240 mg single IV infusion, healthy subjects, read-out: Ceoi Median): 481 ng/mL | Cmax (240 mg, 240 mg single IV infusion, healthy subjects, read-out: Cmax Geo Mean): 506 ng/mL | Cmax (240 mg, 240 mg single IV infusion, healthy subjects, read-out: Cmax Mean): 512 ng/mL | Cmax (240 mg, 240 mg single IV infusion, healthy subjects, read-out: Cmax Median): 483 ng/mL | Vd (240 mg, 240 mg single IV infusion, healthy subjects, read-out: Vss Mean): 97.5 L | Vd (240 mg, 240 mg single IV infusion, healthy subjects, read-out: Vz Mean): 313 L | Vd (240 mg, 240 mg single IV infusion, healthy subjects, read-out: Vz Median): 293 L | Tmax (240 mg, 240 mg single IV infusion, healthy subjects, read-out: tmax Mean): 5.33 h | Tmax (240 mg, 240 mg single IV infusion, healthy subjects, read-out: tmax Median): 4 h | concentration at 0.5 h (240 mg, 240 mg single IV infusion, 0.5 hr, read-out: Plasma Concentration of Cmpd A, Maximum): 400 ng/mL | concentration at 0.5 hr (240 mg, 240 mg single IV infusion, 0.5 hr, read-out: Plasma Concentration of Cmpd A, Median): 264 ng/mL | concentration at 0.5 hr (240 mg, 240 mg single IV infusion, 0.5 hr, read-out: Plasma Concentration of Cmpd A, Q3): 368 ng/mL | concentration at 1 h (240 mg, 240 mg single IV infusion, 1 hr, read-out: Plasma Concentration of Cmpd A, Maximum): 465 ng/mL | concentration at 1 hr (240 mg, 240 mg single IV infusion, 1 hr, read-out: Plasma Concentration of Cmpd A, Median): 318 ng/mL | concentration at 1 hr (240 mg, 240 mg single IV infusion, 1 hr, read-out: Plasma Concentration of Cmpd A, Q3): 418 ng/mL | concentration at 1.5 h (240 mg, 240 mg single IV infusion, 1.5 hr, read-out: Plasma Concentration of Cmpd A, Maximum): 480 ng/mL | concentration at 1.5 hr (240 mg, 240 mg single IV infusion, 1.5 hr, read-out: Plasma Concentration of Cmpd A, Median): 370 ng/mL | concentration at 1.5 hr (240 mg, 240 mg single IV infusion, 1.5 hr, read-out: Plasma Concentration of Cmpd A, Q3): 463 ng/mL | concentration at 2 h (240 mg, 240 mg single IV infusion, 2 hr, read-out: Plasma Concentration of Cmpd A, Maximum): 482 ng/mL | concentration at 2 hr (240 mg, 240 mg single IV infusion, 2 hr, read-out: Plasma Concentration of Cmpd A, Median): 399 ng/mL | concentration at 2 hr (240 mg, 240 mg single IV infusion, 2 hr, read-out: Plasma Concentration of Cmpd A, Q3): 452 ng/mL | concentration at 3 h after end of infusion [1]: 91 ng/mL | concentration at 3 h after end of infusion [2]: 75.5 ng/mL | concentration at 3 h after end of infusion [3]: 87.1 ng/mL | concentration at 3 h (240 mg, 240 mg single IV infusion, 3 hr, read-out: Plasma Concentration of Cmpd A, Maximum): 582 ng/mL | concentration at 3 hr (240 mg, 240 mg single IV infusion, 3 hr, read-out: Plasma Concentration of Cmpd A, Median): 422 ng/mL | concentration at 3 h (240 mg, 240 mg single IV infusion, 3 hr, read-out: Plasma Concentration of Cmpd A, Q3): 515 ng/mL | concentration at 4 h after end of infusion [1]: 65.1 ng/mL | concentration at 4 h after end of infusion [2]: 56.5 ng/mL | concentration at 4 h after end of infusion [4]: 53.1 ng/mL | concentration at 4 h after end of infusion [3]: 62.7 ng/mL | concentration at 4 h (240 mg, 240 mg single IV infusion, 4 hr, read-out: Plasma Concentration of Cmpd A, Maximum): 650 ng/mL | concentration at 4 hr (240 mg, 240 mg single IV infusion, 4 hr, read-out: Plasma Concentration of Cmpd A, Median): 459 ng/mL | concentration at 4 h (240 mg, 240 mg single IV infusion, 4 hr, read-out: Plasma Concentration of Cmpd A, Q3): 579 ng/mL | concentration at 6 h after end of infusion [1]: 38.2 ng/mL | concentration at 6 h after end of infusion [2]: 28.4 ng/mL | concentration at 6 h after end of infusion [4]: 23 ng/mL | concentration at 6 h after end of infusion [3]: 36.9 ng/mL | concentration at 6 h (240 mg, 240 mg single IV infusion, 6 hr, read-out: Plasma Concentration of Cmpd A, Maximum): 532 ng/mL | concentration at 6 hr (240 mg, 240 mg single IV infusion, 6 hr, read-out: Plasma Concentration of Cmpd A, Median): 410 ng/mL | concentration at 6 h (240 mg, 240 mg single IV infusion, 6 hr, read-out: Plasma Concentration of Cmpd A, Q3): 514 ng/mL | concentration at 8 h (240 mg, 240 mg single IV infusion, 8 hr, read-out: Plasma Concentration of Cmpd A, Maximum): 562 ng/mL | concentration at 8 hr (240 mg, 240 mg single IV infusion, 8 hr, read-out: Plasma Concentration of Cmpd A, Median): 470 ng/mL | concentration at 8 hr (240 mg, 240 mg single IV infusion, 8 hr, read-out: Plasma Concentration of Cmpd A, Q3): 542 ng/mL | concentration at 9 h (240 mg, 240 mg single IV infusion, 9 hr, read-out: Plasma Concentration of Cmpd A, Maximum): 613 ng/mL | concentration at 9 hr (240 mg, 240 mg single IV infusion, 9 hr, read-out: Plasma Concentration of Cmpd A, Median): 481 ng/mL | concentration at 9 hr (240 mg, 240 mg single IV infusion, 9 hr, read-out: Plasma Concentration of Cmpd A, Q3): 539 ng/mL | concentration at 10 h after end of infusion [1]: 18.6 ng/mL | concentration at 10 h after end of infusion [2]: 16.6 ng/mL | concentration at 10 h after end of infusion [4]: 10.3 ng/mL | concentration at 10 h after end of infusion [3]: 17.5 ng/mL | concentration at 15 h after end of infusion [1]: 9.71 ng/mL | concentration at 15 h after end of infusion [2]: 7.64 ng/mL | concentration at 15 h after end of infusion [4]: 3.39 ng/mL | concentration at 15 h after end of infusion [3]: 8.82 ng/mL | clearance (IV administration, healthy subjects, read-out: mean estimates of plasma clearance): 717 to 1000 mL/min
